Measured values as given in PubChem BioAssay (NCI).
Values joined by “and” are separate entries in the source; they are usually repeats but may differ in a detail not shown here. Identical values can stand only once.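 Method: 48-hour compound exposure of cells in 96-well plates, five concentrations, linear interpolation of endpoints. At the GI50, growth is halved. TGI denotes the concentration required for complete inhibition of growth.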

What was measured:
Assay in all cases: growth of human tumour cells (NCI), 48 h
UO-31 renal = system: UO-31 renal
TK-10 renal = system: TK-10 renal
SF-295 CNS = system: SF-295 CNS
SF-268 CNS = system: SF-268 CNS
NCI-H226 lung = system: NCI-H226 lung
HT29 colon = system: HT29 colon
U251 CNS = system: U251 CNS
SK-MEL-2 melanoma = system: SK-MEL-2 melanoma

Row | SMILES | GI50 (UO-31 renal) | TGI (UO-31 renal) | GI50 (TK-10 renal) | TGI (TK-10 renal) | GI50 (SF-295 CNS) | TGI (SF-295 CNS) | GI50 (SF-268 CNS) | TGI (SF-268 CNS) | GI50 (NCI-H226 lung) | TGI (NCI-H226 lung) | GI50 (HT29 colon) | TGI (HT29 colon) | GI50 (U251 CNS) | TGI (U251 CNS) | GI50 (SK-MEL-2 melanoma) | TGI (SK-MEL-2 melanoma)
1 | FC(F)(F)c1cccc(-c2[nH]ncc2-c2nnnn2-c2ccccc2)c1 | 10.7 µM | 23.6 µM | 6.6 µM | 20 µM | 2.49 µM | 9.04 µM | 7.69 µM | 23.3 µM | 13.2 µM | 31.1 µM | 2.99 µM | 9.33 µM | 4.69 µM | 17.1 µM | 12.8 µM | 31 µM
2 | O=C(Oc1c(Cl)cc(Cl)cc1Cl)c1ccccc1Nc1ccnc(C(F)(F)F)c1 | 41 µM | > 100 µM | 3.41 µM | 28.4 µM | 4.16 µM | > 100 µM | 3.92 µM | > 100 µM | 5.93 µM | 24.6 µM | 4.59 µM | > 100 µM | 3.04 µM | 9.32 µM | 31.1 µM | > 100 µM
3 | COC(=O)CC1=C(C)/C(=C/c2[nH]c(-c3ccc[nH]3)cc2OC)N=C1C | 0.187 µM | 0.633 µM | 0.214 µM | 3.41 µM | 0.332 µM | 1.69 µM | 0.388 µM | 10.9 µM | 0.068 µM | 0.881 µM | 0.0375 µM | 1.19 µM | 0.175 µM | 1.81 µM | 0.149 µM | 0.354 µM
4 | COc1ccc(/C=C/c2ccnc3ccccc23)cc1OC |  | 0.478 µM |  | 28.9 µM |  | 46.8 µM |  | 27.8 µM |  | 48.5 µM |  | 27.4 µM |  | > 100 µM |  | 39 µM
5 | COC(=O)c1cc(-c2ccc(S(C)(=O)=O)cc2)[nH]c1N/N=C/c1c(Cl)cccc1Cl | 0.49 µM | 37.5 µM | 0.988 µM | 38.3 µM | 0.281 µM | 3.24 µM | 0.587 µM | > 56.4 µM | 1.02 µM | > 22.9 µM | 0.373 µM | 4.45 µM | 0.489 µM | > 54.6 µM | 0.765 µM | > 52.9 µM
6 | CNc1cc(-c2cccc(OC(F)(F)F)c2)nc2ccc(N3CCCC3)cc12 | 1.36 µM and 1.32 µM and 1.42 µM | 2.67 µM and 2.61 µM and 2.74 µM | 1.94 µM and 1.78 µM and 1.8 µM | 3.39 µM and 3.2 µM and 3.24 µM | 1.61 µM and 1.75 µM and 1.68 µM | 2.98 µM and 3.2 µM and 3.09 µM | 1.94 µM and 1.88 µM and 1.87 µM | 3.51 µM and 3.77 µM | 2.49 µM and 1.88 µM | 4.58 µM and 3.77 µM | 1.31 µM and 1.61 µM and 1.54 µM | 2.69 µM and 3.06 µM and 3.01 µM | 1.58 µM and 1.69 µM and 1.67 µM | 3.07 µM and 3.08 µM and 3.11 µM | 1.72 µM and 1.69 µM and 1.77 µM | 3.19 µM and 3.17 µM and 3.23 µM
7 | CN(C)c1ccc2[nH]c3c(C(N)=O)cc(=O)c(=O)c=3oc2c1 |  |  | 3.73 µM | > 100 µM | 3.22 µM | > 100 µM | 3.04 µM | > 100 µM | 4.74 µM | > 100 µM | 3.66 µM | > 100 µM | 1.8 µM | 9.8 µM | 1.87 µM | 5.34 µM
8 | Fc1ccc(Nc2nc(Nc3ccc(-c4nc5ccccc5[nH]4)cc3)c3cn[nH]c3n2)cc1 | 1.62 µM | 4.32 µM | 2.29 µM | 5.29 µM | 1.87 µM | 4.08 µM | 2.11 µM | 5.4 µM | 2.62 µM | 7.07 µM | 1.93 µM | 4 µM | 2.1 µM | 4.34 µM | 2.11 µM | 4.95 µM
